Holding throughout (format): cell-based
Experiment [1] concerns the target T1, Calcium-activated potassium channel alpha/beta 1 (Homo sapiens) (UniProt Q12791+Q16558). Nature of the experiment: Activation of human BKCA alpha/beta1 channel expressed in HEK293 cells assessed as increase of rubidium efflux after 10 mins in presence paxilline.
Experiment [2] deals with Calcium-activated potassium channel subunit alpha-1 (Homo sapiens) (UniProt Q12791). Put plainly: Activation of human BKCA alpha channel expressed in HEK293 cells assessed as increase of rubidium efflux at 100 uM after 10 mins in presence of paxilline.
For experiment [3], the target named is T1, Calcium-activated potassium channel alpha/beta 1 (Homo sapiens). Nature of the experiment: Activation of human BKCA alpha/beta1 channel expressed in HEK293 cells assessed as increase of rubidium efflux after 10 mins in presence iberiotoxin.
For experiment [4], the target named is Calcium-activated potassium channel subunit alpha-1 (Homo sapiens) (UniProt Q12791). Put plainly: Activation of human BKCA alpha channel expressed in HEK293 cells assessed as increase of rubidium efflux at 100 uM after 10 mins in presence of iberiotoxin.
The target of experiment [5] is T1, Calcium-activated potassium channel alpha/beta 1 (Homo sapiens). Nature of the experiment: Activation of human BKCA alpha/beta1 channel expressed in HEK293 cells assessed as increase of rubidium efflux after 10 mins relative to control.
Experiment [6] concerns the target Calcium-activated potassium channel subunit alpha-1 (Homo sapiens) (UniProt Q12791). Put plainly: Activation of human BKCA alpha channel expressed in HEK293 cells assessed as increase of rubidium efflux after 10 mins relative to control.
Experiment [7] has as its target T1, Calcium-activated potassium channel alpha/beta 1 (Homo sapiens). Nature of the experiment: Activation of human BKCA alpha/beta1 channel expressed in HEK293 cells assessed as increase of rubidium efflux after 10 mins.
Experiment [8] has as its target Calcium-activated potassium channel subunit alpha-1 (Homo sapiens) (UniProt Q12791). Put plainly: Activation of human BKCA alpha channel expressed in HEK293 cells assessed as increase of rubidium efflux after 10 mins.
Experiment [9] has the same target. Nature of the experiment: Activation of human BKCA alpha channel expressed in HEK293 cells assessed as increase in intracellular calcium level at 100 uM after 30 mins. A general note: Calcium flux is commonly read through the fluorescence of an indicator in the cells.
The target is the same in experiment [10]. Put plainly: Activation of human BKCA alpha channel expressed in HEK293 cells assessed as increase in intracellular calcium level at 50 uM after 30 mins.
The target is the same in experiment [11]. Nature of the experiment: Activation of human BKCA alpha channel expressed in HEK293 cells assessed as increase in intracellular calcium level at 0.1 uM after 30 mins.
Experiment [12] shares this target. Nature of the experiment: Activation of human BKCA alpha channel expressed in HEK293 cells assessed as increase in intracellular calcium level at 10 uM after 30 mins.

Calls of active or inactive are those of the source. The calls are words filed in the database; no cut-off is given here.

Broadly, the Emax is the greatest response seen or fitted, relative to the assay's reference.

Sequence of Calcium-activated potassium channel subunit alpha-1 (Homo sapiens) (Q12791 whole entry): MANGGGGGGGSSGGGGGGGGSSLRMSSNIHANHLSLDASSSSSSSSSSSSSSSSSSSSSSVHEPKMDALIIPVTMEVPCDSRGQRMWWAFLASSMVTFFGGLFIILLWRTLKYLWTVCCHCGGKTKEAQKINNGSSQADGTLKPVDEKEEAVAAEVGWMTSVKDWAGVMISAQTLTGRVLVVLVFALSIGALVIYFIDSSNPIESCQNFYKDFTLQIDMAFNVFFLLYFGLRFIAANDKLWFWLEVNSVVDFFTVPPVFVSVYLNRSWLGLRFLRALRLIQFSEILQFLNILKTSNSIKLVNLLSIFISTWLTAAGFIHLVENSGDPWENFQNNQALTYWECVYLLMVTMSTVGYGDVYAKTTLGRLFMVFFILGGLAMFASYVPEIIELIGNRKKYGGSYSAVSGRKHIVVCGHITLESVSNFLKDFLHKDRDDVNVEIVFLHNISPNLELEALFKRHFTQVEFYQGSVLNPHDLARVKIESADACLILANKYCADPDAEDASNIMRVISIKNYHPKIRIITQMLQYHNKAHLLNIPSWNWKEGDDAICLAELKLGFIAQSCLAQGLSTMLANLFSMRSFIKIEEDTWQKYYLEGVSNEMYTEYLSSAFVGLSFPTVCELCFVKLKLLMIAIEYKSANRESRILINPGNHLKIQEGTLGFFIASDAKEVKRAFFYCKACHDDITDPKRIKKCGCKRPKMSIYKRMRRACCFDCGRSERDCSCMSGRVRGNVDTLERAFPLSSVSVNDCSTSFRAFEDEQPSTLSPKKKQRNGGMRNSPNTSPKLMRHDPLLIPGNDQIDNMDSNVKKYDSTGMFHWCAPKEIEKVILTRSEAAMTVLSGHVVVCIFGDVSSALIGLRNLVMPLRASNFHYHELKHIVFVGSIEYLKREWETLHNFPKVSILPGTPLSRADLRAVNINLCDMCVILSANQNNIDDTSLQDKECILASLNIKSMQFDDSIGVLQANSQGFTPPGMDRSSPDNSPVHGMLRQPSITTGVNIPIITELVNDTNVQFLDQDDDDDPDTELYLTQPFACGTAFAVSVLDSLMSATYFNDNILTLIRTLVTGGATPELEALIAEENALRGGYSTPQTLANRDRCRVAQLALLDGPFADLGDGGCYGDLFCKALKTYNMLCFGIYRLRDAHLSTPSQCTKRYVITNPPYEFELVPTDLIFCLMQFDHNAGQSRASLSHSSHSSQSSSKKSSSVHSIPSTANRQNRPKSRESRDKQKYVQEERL

Regarding `COc1ccc(Cl)cc1C(=O)Nc1cccnc1`, the result in [1], in [2], in experiment [3] and in [4] was inactive. For the same compound, the Emax was determined as 68.8% in experiment [5] and 72.5% in [6]. For the same compound, the EC40 in [7] was 3470 nM; in experiment [8], 310 nM.
As to `COc1ccc(Cl)cc1C(=O)Nc1ccccn1`, the outcome in experiment [1], in experiment [2], in [3] and in experiment [4] was inactive. In addition, the Emax in experiment [5] was determined as 42%; in experiment [6] it was 49.1%. Also, the values for the EC40 in experiment [7] and in experiment [8] were 46800 nM and 4470 nM, respectively.
For `CCOc1ccccc1C(=O)Nc1cc(Cl)ccc1O`, in [9], the Activity amounted to 6.2%. Moreover, the outcome in experiment [1], in experiment [2], in [3] and in experiment [4] was inactive. The Emax was determined as 99.5% in [5] and 69.9% in experiment [6]. For the same compound, the EC40 in experiment [7] was determined as 120 nM; in [8], 210 nM.
With `C=C[C@@]1(C)CC(=O)[C@]2(O)[C@@]3(C)[C@@H](O)CCC(C)(C)[C@@H]3[C@H](O)[C@H](OC(C)=O)[C@@]2(C)O1`, in experiment [10], the Activity is 22.3%.
Consider `Cc1ccccc1C(=O)Nc1cc(Cl)ccc1O`, for which the result in experiment [1], in [2], in experiment [3] and in [4] was inactive. Moreover, the Emax is 56.8% in [5] and 59.7% in [6]. The values for the EC40 in experiment [7] and in [8] were 3630 nM and 2950 nM, respectively.
As for `O=c1[nH]c2cc(C(F)(F)F)ccc2n1-c1cc(C(F)(F)F)ccc1O`, the Activity in [9] turned out to be 5.3%. Also, the outcome in experiment [1], in [2], in experiment [3] and in [4] was inactive. Besides, the Emax in experiment [5] is 76.6%; in experiment [6], 61.7%. In addition, the results for the EC40 in experiment [7] and in [8] were 790 nM and 350 nM, respectively.
Take `COc1ccc(Cl)cc1C(=O)Nc1ccncc1`: the outcome in experiment [1], in [2], in experiment [3] and in experiment [4] was inactive. Also, the Emax in experiment [5] came out at 65.1%; in [6] it was 99.2%. Also, the figures for the EC40 in experiment [7] and in experiment [8] were 4160 nM and 1120 nM, respectively.
For the compound `O=C(Nc1cc(Cl)ccc1O)c1ccccc1`, the outcome in [1], in experiment [2], in experiment [3] and in experiment [4] was inactive. Also, the Emax in experiment [5] was 32.9%; in experiment [6] it was 62.5%. Moreover, the EC40 in [8] came out at 1410 nM.
`Cc1ccc(NC(=O)c2ccccc2O)c([N+](=O)[O-])c1`: the outcome in experiment [1], in experiment [2], in experiment [3] and in experiment [4] was inactive. The Emax in experiment [5] turned out to be 54.4%; in experiment [6] it was 86.4%. The EC40 is 1410 nM in [7] and 560 nM in experiment [8].
On to `CC(C)[C@@]1(O)[C@@H](OC(=O)c2cc[nH]c2)[C@@]2(O)[C@]3(C)C[C@@]4(O)O[C@@]5([C@H](O)[C@@H](C)CC[C@]35O)[C@@]2(O)[C@@]41C`, for which the Activity in [11] came to 38.1%.
For the compound `CNc1ccc2oc(C[C@H]3O[C@@]4(CC[C@H]3C)O[C@H]([C@H](C)C(=O)c3ccc[nH]3)[C@H](C)C[C@H]4C)nc2c1C(=O)O`, the Activity in experiment [12] amounted to 416%.

(Values after ChEMBL document CHEMBL2396582, “Large conductance Ca(2+)-activated K(+) channel (BKCa) activating properties of a series of novel N-arylbenzamides: Channel subunit dependent effects” (Bioorg Med Chem, 2013).)
